Experimental data published in ChEMBL document CHEMBL1126307, “Conformational studies of muscarone analogues: X-ray analysis and molecular mechanics calculations” (J Med Chem, 1992).

What was measured:
Type in all cases: functional
[1] = Eudismic ratio was measured
[2] = organism: Cavia porcellus; experiment: Muscarinic potency was measured in guinea pig ileum; conditions: for EC50: Cavia porcellus, Ileum
[3] = organism: Rattus norvegicus; experiment: Muscarinic potency was measured in rat bladder; conditions: for EC50: Rattus norvegicus
[4] = organism: Rattus norvegicus; experiment: Muscarinic potency was measured in rat jejunum; conditions: for EC50: Rattus norvegicus, Jejunum
[5] = organism: Cavia porcellus; experiment: Muscarinic potency was measured in guinea pig atria; conditions: for EC50: Cavia porcellus

SMILES | ER [1] | EC50 [2] [nM] | EC50 [4] [nM] | EC50 [5] [nM] | EC50 [3] [nM] | also measured
C[C@H]1OC[C@@H](C[N+](C)(C)C)O1 [listing 1 of 2 here] | 59 |  |  |  |  | 
C[C@@H]1O[C@H](C[N+](C)(C)C)CC1=O [listing 1 of 2 here] | 3.1 |  |  |  |  | 
C[C@@H]1O[C@H](C[N+](C)(C)C)CS1 [listing 1 of 2 here] | 170 |  |  |  |  | 
C[C@H]1CC[C@@H](C[N+](C)(C)C)O1 (racemic) |  |  |  |  |  | -Log EC50 [2]: 6.87; -Log EC50 [3]: 5.62; -Log EC50 [4]: 6.19; -Log EC50 [5]: 5.88
C[C@@H]1O[C@H](C[N+](C)(C)C)CC1=O (racemic) [listing 1 of 2 here] |  | 1 | 12.9 | 2.4 |  | 
C[C@@H]1O[C@H](C[N+](C)(C)C)CC1=O (racemic) [listing 2 of 2 here] | 3.1 |  |  |  |  | 
C[C@@H]1O[C@H](C[N+](C)(C)C)CS1 [listing 2 of 2 here] |  | 5.89 | 28.2 | 42.7 | 229 | 
C[C@@H]1O[C@H](C[N+](C)(C)C)C[C@H]1O [MUSCARINE] | 331 | 31.6 | 155 | 58.9 | 575 | 
C[C@@H]1O[C@H](C[N+](C)(C)C)CS1 (mixture of isomers) [listing 1 of 2 here] |  |  |  |  |  | -Log EC50 [2]: 8.23; -Log EC50 [3]: 6.64; -Log EC50 [4]: 7.55; -Log EC50 [5]: 7.37
C[C@H]1OC[C@@H](C[N+](C)(C)C)O1 (racemic) [listing 1 of 2 here] |  |  |  |  |  | -Log EC50 [2]: 8.38; -Log EC50 [3]: 6.91; -Log EC50 [4]: 7.58; -Log EC50 [5]: 8.02
C[C@H]1CC[C@@H](C[N+](C)(C)C)O1 |  | 135 | 646 | 1320 | 2400 | 
C[C@@H]1O[C@H](C[N+](C)(C)C)CC1O (mixture of isomers) | 331 | 31.6 | 155 | 58.9 | 575 | 
CN1OC(C[N+](C)(C)C)CC1=O (stereo in doubt; 4) [listing 1 of 2 here] | 2.5 |  |  |  |  | 
CN1OC(C[N+](C)(C)C)CC1=O (racemic) [listing 1 of 2 here] | 2.5 |  |  |  |  | 
C[C@@H]1O[C@H](C[N+](C)(C)C)CS1 (mixture of isomers) [listing 2 of 2 here] | 170 |  |  |  |  | 
CN1OC(C[N+](C)(C)C)CC1=O (stereo in doubt; 4) [listing 2 of 2 here] |  | 11.2 | 74.1 | 24 | 363 | 
C=C1C[C@@H](C[N+](C)(C)C)O[C@H]1C |  |  |  |  |  | -Log EC50 [2]: 7.38; -Log EC50 [3]: 6.13; -Log EC50 [4]: 6.78; -Log EC50 [5]: 6.1
C[C@@H]1O[C@H](C[N+](C)(C)C)CC1=O [listing 2 of 2 here] |  |  |  |  |  | -Log EC50 [2]: 9; -Log EC50 [3]: 7.28; -Log EC50 [4]: 7.89; -Log EC50 [5]: 8.62
C[C@H]1OC[C@@H](C[N+](C)(C)C)O1 [listing 2 of 2 here] |  | 4.17 | 26.3 | 9.55 | 123 | 
CN1OC(C[N+](C)(C)C)CC1=O (racemic) [listing 2 of 2 here] |  |  |  |  |  | -Log EC50 [2]: 7.95; -Log EC50 [3]: 6.44; -Log EC50 [4]: 7.13; -Log EC50 [5]: 7.62
C=C1C[C@@H](C[N+](C)(C)C)O[C@H]1C (racemic) |  | 41.7 | 166 | 794 | 741 | 
C[C@H]1OC[C@@H](C[N+](C)(C)C)O1 (racemic) [listing 2 of 2 here] | 59 |  |  |  |  | 
